Measurements: ChEMBL document CHEMBL1201862, “PubChem BioAssay data set” (2004)
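In this assay, cells in 96-well plates receive the compound at five concentrations for 48 hours. Endpoints are linearly interpolated between the surrounding concentrations. Here, GI50 denotes the concentration required for 50% inhibition of growth.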 Active and inactive are the calls of the source. Rule as the data show it: active = GI50 up to about 1.1 µM and inactive = higher.

Columns and labels:
Test in all cases: growth of human tumour cells (NCI), 48 h
[1] = system: HCT-15
[2] = system: OVCAR-3
[3] = system: HT-29
[4] = system: Malme-3M
[5] = system: UACC-62
[6] = system: TK-10
[7] = system: IGROV-1
[8] = system: SN12C
[9] = system: NCI-H522
[10] = system: DU-145
[11] = system: SW-620
[12] = system: U-251
[13] = system: HCT-116
[14] = system: UACC-257
[15] = system: NCI/ADR-RES
[16] = system: M14
[17] = system: NCI-H23
[18] = system: K562
[19] = system: CAKI-1
[20] = system: LOX IMVI
[21] = system: HL-60
[22] = system: Hs-578T
[23] = system: HCC 2998
[24] = system: SK-MEL-2
[25] = system: MOLT-4
[26] = system: T47D
[27] = system: CCRF-CEM
[28] = system: A549
[29] = system: HOP-62
[30] = system: NCI-H226
[31] = system: UO-31
[32] = system: OVCAR-8
[33] = system: SK-OV-3
[34] = system: PC-3
[35] = system: SK-MEL-28
[36] = system: ACHN
[37] = system: SF-539
[38] = system: SNB-75
[39] = system: HOP-92
[40] = system: KM12
[41] = system: RXF 393
[42] = system: SF-268
[43] = system: EKVX
[44] = system: OVCAR-5
[45] = system: COLO 205
[46] = system: 786-0
[47] = system: SK-MEL-5
[48] = system: MDA-MB-435
[49] = system: SF-295
[50] = system: MCF7
[51] = system: MDA-N
[52] = system: SR
[53] = system: A498
[54] = system: BT-549
[55] = system: MDA-MB-231
[56] = system: SNB-19
[57] = system: NCI-H460
[58] = system: OVCAR-4
[59] = system: RPMI-8226

Compound: CCOC(=O)c1ccc(NC(=O)Oc2ccc3c(C)cc(=O)oc3c2)cc1
- GI50 [1]: 33.7 µM
- GI50 [2]: 32.7 µM (inactive)
- GI50 [3]: 32.7 µM (inactive)
- GI50 [4]: 42.6 µM (inactive)
- GI50 [5]: 31.8 µM (inactive)
- GI50 [6]: > 100 µM (inactive)
- GI50 [7]: 38.5 µM (inactive)
- GI50 [8]: 33.1 µM (inactive)
- GI50 [9]: 18.7 µM (inactive)
- GI50 [10]: 37.2 µM (inactive)
- GI50 [11]: 36.2 µM (inactive)
- GI50 [12]: 32.9 µM (inactive)
- GI50 [13]: 28.2 µM (inactive)
- GI50 [14]: 43.2 µM (inactive)
- GI50 [15]: 37 µM (inactive)
- GI50 [16]: 28.5 µM (inactive)
- GI50 [17]: 32.4 µM (inactive)
- GI50 [18]: 24.3 µM (inactive)
- GI50 [19]: 36.1 µM (inactive)
- GI50 [20]: 34.5 µM (inactive)
- GI50 [21]: 30.4 µM (inactive)
- GI50 [22]: 29.6 µM (inactive)
- GI50 [23]: 23.7 µM (inactive)
- GI50 [24]: 23 µM (inactive)
- GI50 [25]: 22.5 µM (inactive)
- GI50 [26]: 22.2 µM (inactive)
- GI50 [27]: 22.6 µM (inactive)
- GI50 [28]: 43.7 µM (inactive)
- GI50 [29]: 31.6 µM (inactive)
- GI50 [30]: 32.7 µM (inactive)
- GI50 [31]: 33.1 µM (inactive)
- GI50 [32]: 35.5 µM (inactive)
- GI50 [33]: 29.6 µM (inactive)
- GI50 [34]: 38.4 µM (inactive)
- GI50 [35]: 34.9 µM (inactive)
- GI50 [36]: 41.4 µM (inactive)
- GI50 [37]: > 100 µM (inactive)
- GI50 [38]: 32 µM (inactive)
- GI50 [39]: 23.7 µM (inactive)
- GI50 [40]: 20.9 µM (inactive)
- GI50 [41]: 58.6 µM (inactive)
- GI50 [42]: 37 µM (inactive)
- GI50 [43]: 42.9 µM (inactive)
- GI50 [44]: 23.1 µM (inactive)
- GI50 [45]: 34.2 µM (inactive)
- GI50 [46]: 45.6 µM (inactive)
- GI50 [47]: 14.7 µM (inactive)
- GI50 [48]: 35.6 µM (inactive)
- GI50 [49]: 30.1 µM (inactive)
- GI50 [50]: 30.8 µM (inactive)
- GI50 [51]: 32.1 µM (inactive)
- GI50 [52]: 24.2 µM (inactive)
- GI50 [53]: > 100 µM (inactive)
- GI50 [54]: 17.2 µM (inactive)
- GI50 [55]: 30.3 µM (inactive)
- GI50 [56]: 29.7 µM (inactive)
- GI50 [57]: 29.6 µM (inactive)
- GI50 [58]: 50.1 µM (inactive)
- GI50 [59]: 30.3 µM (inactive)

Compound: OC(COc1ccc(Cl)cc1Cl)CN1CCCC1 (stereo not drawn)
- GI50 [1]: > 100 µM
- GI50 [2]: 58.9 µM (inactive)
- GI50 [3]: 24.8 µM (inactive)
- GI50 [4]: 60.1 µM (inactive)
- GI50 [5]: 21.7 µM (inactive)
- GI50 [6]: > 100 µM (inactive)
- GI50 [7]: > 100 µM (inactive)
- GI50 [8]: > 100 µM (inactive)
- GI50 [9]: 52.8 µM (inactive)
- GI50 [10]: > 100 µM (inactive)
- GI50 [11]: > 100 µM (inactive)
- GI50 [12]: > 100 µM (inactive)
- GI50 [13]: 87.3 µM (inactive)
- GI50 [14]: 24.2 µM (inactive)
- GI50 [15]: > 100 µM (inactive)
- GI50 [16]: 20 µM (inactive)
- GI50 [17]: > 100 µM (inactive)
- GI50 [18]: 71.6 µM (inactive)
- GI50 [19]: > 100 µM (inactive)
- GI50 [20]: > 100 µM (inactive)
- GI50 [21]: 42.7 µM (inactive)
- GI50 [22]: 58.3 µM (inactive)
- GI50 [23]: 32.9 µM (inactive)
- GI50 [24]: > 100 µM (inactive)
- GI50 [25]: 42.6 µM (inactive)
- GI50 [26]: > 100 µM (inactive)
- GI50 [27]: 87.9 µM (inactive)
- GI50 [28]: > 100 µM (inactive)
- GI50 [29]: > 100 µM (inactive)
- GI50 [30]: 88.7 µM (inactive)
- GI50 [31]: > 100 µM (inactive)
- GI50 [32]: > 100 µM (inactive)
- GI50 [33]: > 100 µM (inactive)
- GI50 [34]: > 100 µM (inactive)
- GI50 [35]: 37.7 µM (inactive)
- GI50 [36]: > 100 µM (inactive)
- GI50 [37]: > 100 µM (inactive)
- GI50 [38]: 50.6 µM (inactive)
- GI50 [39]: 75.9 µM (inactive)
- GI50 [40]: > 100 µM (inactive)
- GI50 [41]: > 100 µM (inactive)
- GI50 [42]: > 100 µM (inactive)
- GI50 [43]: 21.1 µM (inactive)
- GI50 [44]: > 100 µM (inactive)
- GI50 [45]: > 100 µM (inactive)
- GI50 [46]: > 100 µM (inactive)
- GI50 [47]: 27.9 µM (inactive)
- GI50 [48]: 74.1 µM (inactive)
- GI50 [49]: 89.7 µM (inactive)
- GI50 [50]: > 100 µM (inactive)
- GI50 [51]: 56.6 µM (inactive)
- GI50 [52]: 64.6 µM (inactive)
- GI50 [53]: 38.1 µM (inactive)
- GI50 [54]: 30.5 µM (inactive)
- GI50 [55]: > 100 µM (inactive)
- GI50 [56]: > 100 µM (inactive)
- GI50 [57]: 91.6 µM (inactive)
- GI50 [58]: > 100 µM (inactive)
- GI50 [59]: 57 µM (inactive)
